# From ChEMBL document CHEMBL3044689, “Synthesis and Rice-Blast Control Activity of Sulfonylamidines” (1992)
# Tested on: Pyricularia oryzae
# Test: Antifungal activity against Magnaporthe oryzae infected on compound treated rice seedlings at 125 ppm incubated for 24 hr in moist chamber followed by incubation for 5 days in greenhouse conditions
# Type: functional
row,SMILES,Activity [%]
1,CCCCCC/C(=N/S(=O)(=O)c1ccc(C)cc1)N(CC)CC,90
2,CCSC1=NS(=O)(=O)c2ccccc2N1C,70
3,CCCCCCC/C(=N/S(=O)(=O)c1ccc(C)cc1)N(CC)CC,90
4,CCCCC/C(=N/S(=O)(=O)c1ccc(C)cc1)N(CC)CC,90
5,CC(C)OP(=O)(OC(C)C)SCc1ccccc1 [IPROBENFOS],50

# Tested on: Pyricularia oryzae
# Test: Antifungal activity against Magnaporthe oryzae infected on compound treated rice seedlings at 500 ppm incubated for 24 hr in moist chamber followed by incubation for 5 days in greenhouse conditions
# Type: functional
row,SMILES,Activity [%]
1,COC(=O)c1ccccc1/C(=C/S(=O)(=O)c1ccc(C)cc1)N(C)C,0
2,Cc1ccc(/C(=N/S(=O)(=O)c2ccc(C)cc2)N(C)C)cc1,70
3,CCN(CC)/C(=N\S(=O)(=O)c1ccc(C)cc1)C1CCCCC1,30
4,CCN(CC)/C(CC(C)C)=N\S(=O)(=O)c1ccc(C)cc1,0
5,CCCCCC/C(=N/S(=O)(=O)c1ccc(C)cc1)N(CCCC)CCCC,0
6,CCCCCCCCC/C(=N/S(=O)(=O)c1ccc(C)cc1)N(CC)CC,50
7,CCCCCC/C(=N/S(=O)(=O)c1ccc(C)cc1)N1CCOCC1,30
8,C/C=C/C(=N/S(=O)(=O)c1ccc(C)cc1)N(C)C,30
9,CS/C(=N/S(=O)(=O)c1ccc(C)cc1)N(C)C,30
10,Cc1ccc(S(=O)(=O)/N=C(/CC(C)Br)N(C)C)cc1 (stereo not drawn),30
11,CCCCCC/C(=N/S(=O)(=O)c1ccc(C)cc1)N(CC)CC,97
12,CCCCCCCCCCC/C(=N/S(=O)(=O)c1ccc(C)cc1)N(CC)CC,50
13,Cc1ccc(S(=O)(=O)/N=C(/C2CCCCC2)N(C)C)cc1,50
14,CCN(CC)/C(=N\S(=O)(=O)c1ccc(C)cc1)C(C)C,0
15,CCN(CC)/C(=N\S(=O)(=O)c1ccc(C)cc1)C(C)(C)C,0
16,CCCCCCCCCCCCCCC/C(=N/S(=O)(=O)c1ccc(C)cc1)N(CC)CC,0
17,CCCCCC/C(=N/S(=O)(=O)c1ccc(C)cc1)N1CCCC1,30
18,CO/C(=N/S(=O)(=O)c1ccc(C)cc1)N(C)C,0
19,CCCCCC/C(=N/S(=O)(=O)c1ccccc1Cl)N(CC)CC,0
20,CCSC1=NS(=O)(=O)c2ccccc2N1C,90
21,CCCCCC/C(=N/S(=O)(=O)c1ccc(Cl)cc1)N(CC)CC,30
22,Cc1ccc(S(=O)(=O)/N=C(/c2ccc([N+](=O)[O-])cc2)N(C)C)cc1,0

row,SMILES,Activity [%]
1,CCCCCC/C(=N/S(=O)(=O)c1ccc(C)cc1)N1CCCCC1,50
2,CCCCCCCCCC/C(=N/S(=O)(=O)c1ccc(C)cc1)N(CC)CC,50
3,CCCCCCC/C(=N/S(=O)(=O)c1ccc(C)cc1)N(CC)CC,90
4,CCCCCCCCCCCCC/C(=N/S(=O)(=O)c1ccc(C)cc1)N(CC)CC,30
5,CCCCCC/C(=N/S(=O)(=O)c1ccccc1)N(CC)CC,30
6,CCCCCC/C(=N/S(=O)(=O)c1ccc(C)cc1)N(C)C,70
7,Cc1ccc(S(=O)(=O)/N=C(/c2ccc(Cl)cc2)N(C)C)cc1,0
8,CCCC/C(=N/S(=O)(=O)c1ccc(C)cc1)N(CC)CC,70
9,CCCCCC/C(=N/S(=O)(=O)c1ccc(C)cc1)N1CCN(C)CC1,30
10,CCCCC/C(=N/S(=O)(=O)c1ccc(C)cc1)N(CC)CC,90
11,CC(C)OP(=O)(OC(C)C)SCc1ccccc1 [IPROBENFOS],70
12,Cc1ccc(S(=O)(=O)/N=C(/c2ccc(Cl)c(Cl)c2)N(C)C)cc1,50
13,C/C(=N/S(=O)(=O)c1ccc(C)cc1)N(C)C,70
14,CCC/C(=N/S(=O)(=O)c1ccc(C)cc1)N(C)C,70
15,Cc1ccc(S(=O)(=O)/N=C(/c2ccc(N(C)C)cc2)N(C)C)cc1,0
16,COc1ccc(/C(=N/S(=O)(=O)c2ccc(C)cc2)N(C)C)cc1,70
17,Cc1ccc(S(=O)(=O)N=C(N(C)C)N(C)C)cc1,30
18,CCCCCCCC/C(=N/S(=O)(=O)c1ccc(C)cc1)N(CC)CC,70
19,CCOC(=O)/C(=N/S(=O)(=O)c1ccc(C)cc1)N(C)C,50
20,CCCCCC/C(=N/S(=O)(=O)c1ccc(C)cc1)N(CCC)CCC,50
21,Cc1ccc(S(=O)(=O)/N=C(/c2ccccc2)N(C)C)cc1,30

# Tested on: Pyricularia oryzae
# Test: Antifungal activity against Magnaporthe oryzae infected on compound treated rice seedlings at 7.8 ppm incubated for 24 hr in moist chamber followed by incubation for 5 days in greenhouse conditions
# Type: functional
row,SMILES,Activity [%]
1,CCCCCC/C(=N/S(=O)(=O)c1ccc(C)cc1)N(CC)CC,50
2,CCSC1=NS(=O)(=O)c2ccccc2N1C,0
3,CCCCCCC/C(=N/S(=O)(=O)c1ccc(C)cc1)N(CC)CC,30
4,CCCCC/C(=N/S(=O)(=O)c1ccc(C)cc1)N(CC)CC,30
5,CC(C)OP(=O)(OC(C)C)SCc1ccccc1 [IPROBENFOS],0

# Tested on: Pyricularia oryzae
# Test: Antifungal activity against Magnaporthe oryzae infected on compound treated rice seedlings at 31.3 ppm incubated for 24 hr in moist chamber followed by incubation for 5 days in greenhouse conditions
# Type: functional
row,SMILES,Activity [%]
1,CCCCCC/C(=N/S(=O)(=O)c1ccc(C)cc1)N(CC)CC,90
2,CCSC1=NS(=O)(=O)c2ccccc2N1C,30
3,CCCCCCC/C(=N/S(=O)(=O)c1ccc(C)cc1)N(CC)CC,70
4,CCCCC/C(=N/S(=O)(=O)c1ccc(C)cc1)N(CC)CC,70
5,CC(C)OP(=O)(OC(C)C)SCc1ccccc1 [IPROBENFOS],30
